Measured values from patent US4752614A, “Pharmaceutical compositions of tellerium and selenium compounds for the induction of in vivo and in vitro production of cytokines” (Bar-Ilan University, priority 1987, dated 1988).
“Also recorded” adds a separate entry of the source.

Key:
IL-2 [1] = assay: In vitro induction of IL-2 from mouse spleen cells (Example 7); format: cell-based, male Balb-c mice
Description: (§1) This example describes the in vitro making of IL-2 and CSF from mouse spleen cells using the compound of Example 1 as the extrinsic stimulating agent.
(§2) Spleens were removed from 15, male Balb-c mice 6 to 8 weeks of age. The spleen cells were pushed through stainless steel 60 mesh (U.S. standard) nets resting in 5 mm Petri dishes containing PBS in order to separate the cells. The cells were then collected into centrifuge tubes and spun at 1000 rpm for 10 minutes. The supernatant was discarded and cells were treated with 5 ml of hypotonic buffer (0.15M NH4 Cl; 0.01M KHCO3 dissolved in double distilled water, pH 7.2) for exactly two minutes. Thereafter, PBS was added to the cells and the test tubes were centrifuged for 10 minutes at 1000 rpm. The cells were rinsed twice and counted in a heamocytometer using trypan blue to test for viability. The cells were brought to a concentration of 10^7 viable cells/ml. The cells were contacted with varying amounts of the compound of Example 1 in 1 ml of 40% DMSO 60% PBS.

West Nile virus (WNV) = assay: West Nile virus infection in mice (Example 22); format: in vivo, ICR mice; settings: for # Alive/Total Animals: Table A; for # Alive/Total Animals / # Alive/Total: preliminary; for # Alive/Total: Table B
Description: The compounds may be used as anti-bacterial or anti-viral agents in plants or in animals. Virus infections such as West Nile virus infections in mice are susceptible to the compound of the Example 1 at a dose of 10 μg/day/mouse. Plant bacterial infections such as crown gall caused by Agrobacterium tumefaciens may be treated or prevented by the application of a 0.1% solution of compounds of the invention.
The effect of the compound of Example 1 on an infection with West Nile virus (WNV) was determined. WNV is a toga virus of the flavivirus group, a positive single stranded RNA virus, which when injected IP to mice usually kills them within 5-8 days as a result of extensive damage to the central nervous system. For this study ICR mice (3 wks of age) were injected IP with the virus at the concentration of 10^3 or 10^4 LD 50 units/mouse. Injections of 10 μg/0.2 ml PBS/mouse of the compound of Ex. 1 were given on day -1 (one day prior to injection of virus) and 6 days after injection of virus.
In a second experiment, mice were injected with 10^3 IPLD50 virus and received injections of the compound of Example 1 (1 μg/0.2 ml PBS/mouse) on days -1, 1, 2 and 4.

fibrosarcoma cells = assay: Survival of mice with methylcholanthrene induced fibrosarcoma (Example 6); format: in vivo, Balb-c mice; set-up: mortality: concentration or dose not given beside the values
Description: A solution of 0.2% of methylcholanthrene (MCA, Sigma, USA) was prepared by dissolving 2 mg of the carcinogen in 1.0 ml of olive oil (Ref: Petra, et al., Cancer 19:302, 1961) with continuous shaking at 37° C. for 30 minutes. Six to eight week old C3 Heb mice were injected with 0.6 mg MCA/0.3 ml of solvent/mouse subcutaneously in the rear right thigh. After 21-30 days the induced tumor was surgically removed and pushed through 60 mesh stainless nets to obtain isolated cells. These cells were then further injected subcuteneously into the rear right thigh of C3 Heb mice 5 to 8 weeks of age, at a concentration of 10^6 cells/0.3 ml PBS/mouse/hypodermic needle 25 gauge, 5/8" to further induce tumor formation.
Balb-c mice, age 7 weeks were injected with methylcholanthrene to induce the formation of fibrosarcoma cells according to the procedure of Example 5. The test animals were divided into two groups.
(a) control (0.2 IP of 40% DMSO and 60% PBS)

WNV = WNV yield in mouse macrophage cultures (Example 23); format: cell-based, ICR mouse macrophage; settings: 72 h; for Virus Yield: preliminary
Description: Varying amounts of the compound of Example 1 (5 μg, 1 μg, 0.1 μg) were incubated with a monolayer of mouse macrophages for 24 h. […] All cultures were then infected with 10^4 PFU/plate. After 72 h incubation the supernatants were collected and the virus was titrated against Vera cells.

CSF = assay: In vitro induction of colony stimulating factor (CSF) from mouse spleen cells (Example 7); format: cell-based, male Balb-c mice
Description: as §1, §2

receptor sites for IL-2 = assay: Detection of IL-2 receptors with fluoresceinated antibody (Example 21); format: cell-based, human; settings: 1 μg/ml, 24 hours
Description: This example provides an assay to detect the presence of receptor sites for IL-2. […] The cells were washed twice with PDS and then incubated with a specific fluoresceinated antibody against IL-2 receptors as described in Uchiyama et al, J. Immunol.

IL-2 [2] = assay: Oral administration in drinking water, IL-2 content of spleen cell supernatants (Example 13); format: in vivo, male Balb-C mice; settings: 1 μg/ml H2O, 4 days
Description: The water solution was prepared by dissolving the compounds in PBS at a concentration of 50 μg/ml PBS and diluting the resulting solution to the desired concentration. The compounds were administered over a 4 day period. The exact amount of liquid intake was recorded daily. […] The cells were incubated at a concentration of 10^7 cells/ml in enriched RPMI containing 2 μg/ml of con-A for 24 hours at 37° C. The supernatants were collected and tested for IL-2 content.

## Cl[TeH]1(Cl)(Cl)OCCO1 [Example 1]
IL-2 [1]; 5 pg
  IL-2: 12,000 cpm
IL-2 [1]; 50 pg
  IL-2: 38,000 cpm
IL-2 [1]; 500 pg
  IL-2: 30,000 cpm
IL-2 [1]; 5 ng
  IL-2: 15,000 cpm
IL-2 [1]; 50 ng
  IL-2: 6,000 cpm
IL-2 [1]; 500 ng
  IL-2: 5,000 cpm
IL-2 [1]; 5 μg
  IL-2: 5,000 cpm
IL-2 [1]; 50 μg
  IL-2: 5,000 cpm
West Nile virus (WNV); 10 μg/day/mouse
  susceptibility of West Nile virus infections in mice: susceptible
West Nile virus (WNV); 10^3 IPLD50, 1 μg/mouse days -1, 1, 2 and 4
  survival beyond day 8: Two out of the remaining three survived an additional 8 days; also recorded: the third remained alive without any manifestations of clinical symptoms
West Nile virus (WNV); 10^3 LD50 virus, 10 μg/mouse days -1 and 6, after 8 days
  # Alive/Total Animals: 3/5
West Nile virus (WNV); 10^4 LD50 virus, 10 μg/mouse days -1 and 6, after 8 days
  # Alive/Total Animals: 3/5
West Nile virus (WNV); no virus (0), 10 μg/mouse days -1 and 6
  # Alive/Total Animals: 6/6
West Nile virus (WNV); 10^3 IPLD50, 1 μg/mouse days -1, 1, 2 and 4, day 8
  # Alive/Total: 3/5
West Nile virus (WNV); compound alone, 1 μg/mouse days -1, 1, 2 and 4, day 8
  # Alive/Total: 5/5
Fibrosarcoma cells; 10 μg IP, day 4 after innoculation
  % Survival: 100%
Fibrosarcoma cells; 10 μg IP, day 9
  % Survival: 100%
Fibrosarcoma cells; 10 μg IP, day 23
  % Survival: 100%
Fibrosarcoma cells; 10 μg IP, day 30
  % Survival: 100%
Fibrosarcoma cells; 10 μg IP, day 37
  % Survival: 100%
Fibrosarcoma cells; day 39, start of increased dosage regimen
  % Survival: 100%
Fibrosarcoma cells; day 41, increased dosage
  % Survival: 100%
Fibrosarcoma cells; day 43, increased dosage
  % Survival: 100%
Fibrosarcoma cells; day 46, increased dosage
  % Survival: 80%
Fibrosarcoma cells; day 48, increased dosage
  % Survival: 80%
Fibrosarcoma cells; day 50, increased dosage
  % Survival: 80%
Fibrosarcoma cells; day 53, increased dosage
  % Survival: 60%
Fibrosarcoma cells; day 60, increased dosage
  % Survival: 40%
Fibrosarcoma cells; day 67
  % Survival: 20%
Fibrosarcoma cells; day 68
  % Survival: 0%
Fibrosarcoma cells; group (b), until just after the increased dosage regimen (day 39)
  mortality: 0%
WNV; 0.1 μg
  reduction of virus yield: ten
WNV; 0.1 μg/plate
  Virus Yield: 2 × 10^3 PFU/ml
WNV; 1 μg
  reduction of virus yield: 40 fold
WNV; μg/plate (text: 1 μg)
  Virus Yield: 5 × 10^2 PFU/ml
CSF; 5 pg
  CSF: 140 colonies/dish
CSF; 50 pg
  CSF: 260 colonies/dish
CSF; 500 pg
  CSF: 175 colonies/dish
CSF; 5 ng
  CSF: 120 colonies/dish
CSF; 50 ng
  CSF: 75 colonies/dish
CSF; 500 ng
  CSF: 25 colonies/dish
CSF; 5 μg
  CSF: 5 colonies/dish
CSF; 50 μg
  CSF: 2 colonies/dish
Receptor sites for IL-2
  cells positive for IL-2 receptors: 20%
IL-2 [2]
  IL-2 content: 49179 cpm
  Percent increase as compared to control: +50%
